Measured values as given in patent US20210363152A1, “AMINOAZINE AMIDES” (Hoffmann-La Roche Inc., priority 2018, published 2021).

Each molecule was assayed against T1, Autotaxin enzyme (ATX) (Homo sapiens, UniProt Q13822) (assay: In vitro ATX assay (enzymatic ATX inhibition, LPC 14:0 substrate, choline oxidase/HRP absorbance readout)). Conditions: 0.3 mM LPC 14:0, 37° C., 4 hours, absorbance 555 nm.
T1 construct: purchased Echelon Biosciences, Inc. E-4000
Assay type: biochemical
Method in brief: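 Human ATX (10 ng/mL as added) in pH 9.0 Tris buffer with NaCl, MgCl2, CoCl2 and Triton X-100 was preincubated with compound for 15 min at 37 °C. LPC 14:0 (0.3 mM final) was then hydrolysed for 4 h at 37 °C. Released choline was detected by choline oxidase/HRP with 4-AAP/TOOS, read after 15 min RT as absorbance at 555 nm, giving banded IC50 values.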

| SMILES | IC50 |
| --- | --- |
| CN1CC2(CCN2C(=O)c2cnc(NCc3cc(OC(F)(F)F)cc(C4CC4)c3)nc2)C1 [Example 142, (2-((3-Cyclopropyl-5-(trifluoromethoxy)benzyl)amino)pyrimidin-5-yl)(6-methyl-1,6-diazaspiro[3.3]heptan-1-yl)methanone] | < 100 nM |
| CCN1CC2(CCN2C(=O)c2cnc(NCc3cc(OC(F)(F)F)cc(C4CC4)c3)nc2)C1 [Example 143, (2-((3-Cyclopropyl-5-(trifluoromethoxy)benzyl)amino)pyrimidin-5-yl)(6-ethyl-1,6-diazaspiro[3.3]heptan-1-yl)methanone] | < 100 nM |
| O=C(c1cnc(NCc2cc(OC(F)(F)F)cc(C3CC3)c2)nc1)N1CCC12CN(C1CCC1)C2 [Example 144, (6-Cyclobutyl-1,6-diazaspiro[3.3]heptan-1-yl)(2-((3-cyclopropyl-5-(trifluoromethoxy)benzyl)amino)pyrimidin-5-yl)methanone] | < 100 nM |
| O=C(c1cnc(NCc2cc(OC(F)(F)F)cc(C3CC3)c2)nc1)N1CCC12CN(C1COC1)C2 [Example 145, (2-((3-Cyclopropyl-5-(trifluoromethoxy)benzyl)amino)pyrimidin-5-yl) (6-(oxetan-3-yl)-1,6-diazaspiro[3.3]heptan-1-yl)methanone] | < 100 nM |
| O=C(c1cnc(NCc2cc(OC(F)(F)F)cc(C3CC3)c2)nc1)N1CCC12CN(C1CC1)C2 [Example 146, (2-((3-Cyclopropyl-5-(trifluoromethoxy)benzyl)amino)pyrimidin-5-yl) (6-cyclopropyl-1,6-diazaspiro[3.3]heptan-1-yl)methanone] | < 100 nM |
| CC(C)N1CC2(CCN2C(=O)c2cnc(NCc3cc(OC(F)(F)F)cc(C4CC4)c3)nc2)C1 [Example 147, (2-((3-Cyclopropyl-5-(trifluoromethoxy)benzyl)amino)pyrimidin-5-yl) (6-isopropyl-1,6-diazaspiro[3.3]heptan-1-yl)methanone] | < 100 nM |
| O=C(c1cnc(NCc2cc(OC(F)(F)F)cc(C3CC3)c2)nc1)N1CCC12CN(CC(F)(F)F)C2 [Example 148, (2-((3-Cyclopropyl-5-(trifluoromethoxy)benzyl)amino)pyrimidin-5-yl) (6-(2,2,2-trifluoroethyl)-1,6-diazaspiro[3.3]heptan-1-yl)methanone] | < 100 nM |
| O=C(c1cnc(NCc2cc(OC(F)(F)F)cc(C3CC3)c2)nc1)N1CCC12CN(CC(F)F)C2 [Example 149, (2-((3-Cyclopropyl-5-(trifluoromethoxy)benzyl)amino)pyrimidin-5-yl) (6-(2,2-difluoroethyl)-1,6-diazaspiro[3.3]heptan-1-yl)methanone] | < 100 nM |
| CS(=O)(=O)CCN1CC2(CCN2C(=O)c2cnc(NCc3cc(OC(F)(F)F)cc(C4CC4)c3)nc2)C1 [Example 150, (2-((3-Cyclopropyl-5-(trifluoromethoxy)benzyl)amino)pyrimidine-5-yl) (6-(2-(methylsulfonyl)ethyl)-1,6-diazaspiro[3.3]heptan-1-yl)methanone] | < 100 nM |
| CC(C)c1cc(CNc2ncc(C(=O)N3CCC34CN(S(C)(=O)=O)C4)cn2)cc(OC(F)(F)F)c1 [Example 151, (2-((3-Isopropyl-5-(trifluoromethoxy)benzyl)amino)pyrimidin-5-yl) (6-(methylsulfonyl)-1,6-diazaspiro[3.3]heptan-1-yl)methanone] | < 100 nM |
| CS(=O)(=O)N1CC2(CCN2C(=O)c2cnc(NC3Cc4ccc(Cl)cc4C3)nc2)C1 (stereo not drawn) [Example 152, (2-((5-Chloro-2,3-dihydro-1H-inden-2-yl)amino)pyrimidin-5-yl)(6-(methylsulfonyl)-1,6-diazaspiro[3.3]heptan-1-yl)methanone] | < 100 nM |
| CC(=O)N1CC2(CCN2C(=O)c2cnc(NCc3cc(OC(F)(F)F)cc(C4CC4)c3)nc2)C1 [Example 153, 1-(1-(2-((3-Cyclopropyl-5-(trifluoromethoxy)benzyl)amino)pyrimidine-5-carbonyl)-1,6-diazaspiro[3.3]heptan-6-yl)ethanone] | < 100 nM |
